Assay results published in ChEMBL document CHEMBL1139729, “Separation of anti-angiogenic and cytotoxic activities of borrelidin by modification at the C17 side chain” (Bioorg Med Chem Lett, 2006).
Calls of active or inactive are those of the source. No cut-off for these calls is given here.

Key:
LNCaP [1] = assay: Antiproliferative activity against LNCAP cell line at 10 uM; assay type: functional; settings: Homo sapiens
A498 [2] = assay: Antiproliferative activity against A498 cell line at 10 uM; assay type: functional; settings: Homo sapiens
NCI-H460 [3] = assay: Antiproliferative activity against H460 cell line at 10 uM; assay type: functional; settings: Homo sapiens
[4] = (§1) Antiproliferative activity against 394NL cell line at 10 uM; assay type: functional; settings: Homo sapiens; values are per cent of control
[5] = (§2) Antiproliferative activity against 251L cell line at 10 uM; assay type: functional; settings: Homo sapiens; values are per cent of control
MCF7 [6] = assay: Antiproliferative activity against MCF7 cell line at 10 uM; assay type: functional; settings: Homo sapiens
[7] = (§3) Antiproliferative activity against MDA467 cell line at 10 uM; assay type: functional; settings: Homo sapiens; values are per cent of control
SF-268 [8] = assay: Antiproliferative activity against SF268 cell line at 10 uM; assay type: functional; settings: Homo sapiens
OVCAR-3 [9] = assay: Antiproliferative activity against OVCAR-3 cell line at 10 uM; assay type: functional; settings: Homo sapiens
DU-145 [10] = assay: Antiproliferative activity against DU145 cell line at 10 uM; assay type: functional; settings: Homo sapiens
[11] = (§4) Antiproliferative activity against 1138L cell line at 10 uM; assay type: functional; settings: Homo sapiens; values are per cent of control
[12] = (§5) Antiproliferative activity against MDA231 cell line at 10 uM; assay type: functional; settings: Homo sapiens, MDA-MB-231; values are per cent of control
[13] = Antiproliferative activity against 1138L cell line at 3 uM; assay type: functional; settings: Homo sapiens
[14] = Antiproliferative activity against MDA231 cell line at 3 uM; assay type: functional; settings: Homo sapiens, MDA-MB-231
LNCaP [15] = assay: Antiproliferative activity against LNCAP cell line at 3 uM; assay type: functional; settings: Homo sapiens
[16] = Antiproliferative activity against MDA467 cell line at 3 uM; assay type: functional; settings: Homo sapiens
NCI-H460 [17] = assay: Antiproliferative activity against H460 cell line at 3 uM; assay type: functional; settings: Homo sapiens
[18] = Antiproliferative activity against 394NL cell line at 3 uM; assay type: functional; settings: Homo sapiens
[19] = Antiproliferative activity against 251L cell line at 3 uM; assay type: functional; settings: Homo sapiens
SF-268 [20] = assay: Antiproliferative activity against SF268 cell line at 3 uM; assay type: functional; settings: Homo sapiens
MCF7 [21] = assay: Antiproliferative activity against MCF7 cell line at 3 uM; assay type: functional; settings: Homo sapiens
DU-145 [22] = assay: Antiproliferative activity against DU145 cell line at 3 uM; assay type: functional; settings: Homo sapiens
A498 [23] = assay: Antiproliferative activity against A498 cell line at 3 uM; assay type: functional; settings: Homo sapiens
OVCAR-3 [24] = assay: Antiproliferative activity against OVCAR-3 cell line at 3 uM; assay type: functional; settings: Homo sapiens
[25] = Antiproliferative activity against NCI60 cell line; assay type: functional, cell-based; settings: Homo sapiens
HUVEC [26] = assay: Inhibition of HUVEC tubule formation assessed as length of branches at 0.25 pM; assay type: functional, Homo sapiens
HUVEC [27] = assay: Inhibition of HUVEC tubule formation assessed as length of branches at 0.75 pM; assay type: functional, Homo sapiens
HUVEC [28] = assay: Inhibition of HUVEC tubule formation assessed as number of branches at 0.75 pM; assay type: functional, Homo sapiens
HUVEC [29] = assay: Inhibition of HUVEC tubule formation assessed as number of branches at 0.25 pM; assay type: functional, Homo sapiens
HUVEC [30] = assay: Growth inhibition in HUVEC; assay type: functional, cell-based; settings: Homo sapiens
[31] = Maximum tolerated dose in iv dosed nude mouse; assay type: ADME, organism-based; settings: in vivo
HUVEC [32] = assay: Inhibition of HUVEC tubule formation assessed as length of branches at 25 pM; assay type: functional, Homo sapiens
HUVEC [33] = assay: Inhibition of HUVEC tubule formation assessed as number of branches at 25 pM; assay type: functional, Homo sapiens
HUVEC [34] = assay: Inhibition of HUVEC tubule formation assessed as length of branches at 75 pM; assay type: functional, Homo sapiens
HUVEC [35] = assay: Inhibition of HUVEC tubule formation assessed as number of branches at 75 pM; assay type: functional, Homo sapiens
HUVEC [36] = assay: Inhibition of HUVEC tubule formation assessed as length of branches at 100 nM; assay type: functional, Homo sapiens
HUVEC [37] = assay: Inhibition of HUVEC tubule formation assessed as number of branches at 10 nM; assay type: functional, Homo sapiens
HUVEC [38] = assay: Inhibition of HUVEC tubule formation assessed as number of branches at 100 nM; assay type: functional, Homo sapiens
HUVEC [39] = assay: Inhibition of HUVEC tubule formation assessed as length of branches at 10 nM; assay type: functional, Homo sapiens
Homo sapiens [40] = species on record: Homo sapiens; assay: as §1; assay type: functional
Homo sapiens [41] = species on record: Homo sapiens; assay: as §2; assay type: functional
Homo sapiens [42] = species on record: Homo sapiens; assay: as §3; assay type: functional
Homo sapiens [43] = species on record: Homo sapiens; assay: as §4; assay type: functional
MDA-MB-231 = assay: as §5; assay type: functional; settings: Homo sapiens

Structure (SMILES) | inhibition at 10 µM (LNCaP [1]) [%] | inhibition at 10 µM (A498 [2]) [%] | inhibition at 10 µM (NCI-H460 [3]) [%] | growth, % of control at 10 µM [4] [%] | growth, % of control at 10 µM [5] [%] | inhibition at 10 µM (MCF7 [6]) [%] | growth, % of control at 10 µM [7] [%] | inhibition at 10 µM (SF-268 [8]) [%] | inhibition at 10 µM (OVCAR-3 [9]) [%] | inhibition at 10 µM (DU-145 [10]) [%] | growth, % of control at 10 µM [11] [%] | growth, % of control at 10 µM [12] [%] | IC50 [25] [µM] | IC50 (HUVEC [30]) [µM] | other results
C[C@@H]1C[C@H](C)C[C@H](C)[C@@H](O)CC(=O)O[C@H](C[C@H](C)C(=O)O)C/C=C/C=C(/C#N)[C@H](O)[C@@H](C)C1 | 92 | 78 | 84 | 67 | 81 | 76 | 62 | 57 | 91 | 74 | 56 | 90 | – | – | –
CS[C@H](C[C@@H]1C/C=C/C=C(/C#N)[C@H](O)[C@@H](C)C[C@H](C)C[C@H](C)C[C@H](C)[C@@H](O)CC(=O)O1)C(=O)O | 59 | 68 | 79 | 64 | 67 | 48 | 59 | 54 | 102 | 75 | 42 | 81 | – | – | –
C[C@@H]1C[C@H](C)C[C@H](C)[C@@H](O)CC(=O)O[C@H]([C@H](C)CC(=O)O)C/C=C/C=C(/C#N)[C@H](O)[C@@H](C)C1 | 24 | 21 | 38 | 9 | 26 | 12 | 15 | 13 | 32 | 55 | 5 | 20 | – | – | –
COc1cccc2c1C(=O)c1c(O)c3c(c(O)c1C2=O)C[C@@](O)(C(=O)CO)C[C@@H]3O[C@H]1C[C@H](N)[C@H](O)[C@H](C)O1 [DOXORUBICIN] | – | – | – | – | – | – | – | – | – | – | – | – | – | – | inhibition at 3 µM [13]: 6%; inhibition at 3 µM [14]: 11%; inhibition at 3 µM (LNCaP [15]): 10%; inhibition at 3 µM [16]: 7%; inhibition at 3 µM (NCI-H460 [17]): 3%; inhibition at 3 µM [18]: 6%; inhibition at 3 µM [19]: 15%; inhibition at 3 µM (SF-268 [20]): 9%; inhibition at 3 µM (MCF7 [21]): 12%; inhibition at 3 µM (DU-145 [22]): 5%; inhibition at 3 µM (A498 [23]): 11%; inhibition at 3 µM (OVCAR-3 [24]): 10%
C[C@@H]1C[C@H](C)C[C@H](C)[C@@H](O)CC(=O)O[C@H](C[C@@H](C)C(=O)O)C/C=C/C=C(/C#N)[C@H](O)[C@@H](C)C1 | 34 | 30 | 49 | 9 | 32 | 16 | 25 | 14 | 29 | 68 | 6 | 26 | – | – | –
C[C@@H]1C[C@H](C)C[C@H](C)[C@@H](O)CC(=O)O[C@H]([C@@H]2CC[C@H]2C(=O)O)C/C=C/C=C(/C#N)[C@H](O)[C@@H](C)C1 | 9 | 9 | 7 | 3 | 9 | 9 | 6 | 4 | 16 | 16 | 3 | 8 | 0.3 | 0.5 | Activity (HUVEC [26]): 65; Activity (HUVEC [27]): 63; Activity (HUVEC [28]): 40; Activity (HUVEC [29]): 38; MTD [31]: > 130 mg/kg
C[C@@H]1C[C@H](C)C[C@H](C)[C@@H](O)CC(=O)O[C@H]([C@H](C)[C@H](C)C(=O)O)C/C=C/C=C(/C#N)[C@H](O)[C@@H](C)C1 | 7 | 9 | 3 | 4 | 12 | 9 | 7 | 3 | 6 | 7 | 3 | 7 | 0.07 | 0.001 | Activity (HUVEC [32]): 62; Activity (HUVEC [33]): 116; Activity (HUVEC [34]): 63; Activity (HUVEC [35]): 246
C[C@@H]1C[C@H](C)C[C@H](C)[C@@H](O)CC(=O)O[C@H]([C@@H]2CCC[C@H]2C(=O)O)C/C=C/C=C(/C#N)[C@H](O)[C@@H](C)C1 [BORRELIDIN] | 7 | 8 | 4 | 2 | 8 | 13 | 6 | 3 | 11 | 5 | 2 | 12 | 0.02 | 0.0005 | Activity (HUVEC [36]): 65; Activity (HUVEC [37]): 230; Activity (HUVEC [38]): 233; Activity (HUVEC [39]): 64
C/C1=C/C=C/C[C@@H]([C@@H]2CCC[C@H]2C(=O)O)OC(=O)C[C@H](O)[C@@H](C)C[C@@H](C)C[C@@H](C)C[C@H](C)[C@H]1O | – | – | – | – | – | – | – | – | – | – | – | – | – | – | Activity (LNCaP [1]): inactive; Activity (A498 [2]): inactive; Activity (NCI-H460 [3]): inactive; Activity (Homo sapiens [40]): inactive; Activity (Homo sapiens [41]): inactive; Activity (HUVEC [30]): inactive; Activity (MCF7 [6]): inactive; Activity (Homo sapiens [42]): inactive; Activity (SF-268 [8]): inactive; Activity (OVCAR-3 [9]): inactive; Activity (DU-145 [10]): inactive; Activity (Homo sapiens [43]): inactive; Activity (MDA-MB-231): inactive
